Literature values, collected in patent US20240123021A1, “PHARMACEUTICAL COMPOSITIONS” (EXTROVIS AG, priority 2021, published 2024).
Square brackets hold non-standard residues; d marks the D form. Peptide text beside a SMILES is read from it. dPhe(4-Cl) = N[C@H](Cc1ccc(Cl)cc1)C(=O)O; d2Nal = N[C@H](Cc1ccc2ccccc2c1)C(=O)O; dCit = NC(=O)NCCC[C@@H](N)C(=O)O; d3Pal = N[C@H](Cc1cccnc1)C(=O)O

Settings: according to Cetrotide EPAR scientific discussion

Compound | aggregation and gelling in solution (in solution) | stability (thermal, aqueous solution)
Acetyl-D-3-(2′-naphtyl)-alanine-D-4-chlorophenylalanine-D-3-(3′-pyridyl)alanine-L-serine-L-tyrosine-D-citruline-L-leucine-L-arginine-L-proline-D-alanine-amide [Cetrorelix] | tends to aggregate and gel | 
CC(=O)N[C@H](Cc1ccc2ccccc2c1)C(=O)N[C@H](Cc1ccc(Cl)cc1)C(=O)N[C@H](Cc1cccnc1)C(=O)N[C@@H](CO)C(=O)N[C@@H](Cc1ccc(O)cc1)C(=O)N[C@H](CCCNC(N)=O)C(=O)N[C@@H](CC(C)C)C(=O)N[C@@H](CCCNC(=N)N)C(=O)N1CCC[C@H]1C(=O)N[C@H](C)C(N)=O [Cetrorelix acetate] (Ac-[d2Nal][dPhe(4-Cl)][d3Pal]SY[dCit]LRP[dA]-NH2) |  | thermally labile and unstable in aqueous solution
